In general, IC50 refers to the concentration that inhibits the measured activity by half.

Like-named read-outs stand apart in the source and are kept apart here.

Assay [1] has as its system Plasmodium falciparum 3D7 (CQ-sensitive). The assay is described as follows: In vitro antimalarial assay (malaria SYBR Green I-based fluorescence, MSF), 3D7. It is filed as cell-based. The procedure: Stock solutions of each test drug were prepared in DMSO at a concentration of 20 mM. The drug solutions were serially diluted with culture medium and distributed to asynchronous parasite cultures on 96-well plates in quadruplicate in a total volume of 100 μL to achieve 0.5% parasitemia with a 2% hematocrit in a total volume of 100 pt. […] After incubation, 100 μL of lysis buffer with 0.2 μL/mL SYBR Green I was added to each well.
Antimalarial potency of compounds was determined by this technique for both Plasmodium falciparum 3D7 (CQ-sensitive) and Dd2 (multi-drug resistant) strains.

Assay [2] has as its target Plasmepsin-2 (PM-2; Plm II) (Plasmodium falciparum (isolate HB3), UniProt P46925). The assay is described as follows: Plasmepsin-2 enzyme inhibition assay. It is filed as biochemical. Conditions: Table 13; read-out: PM-2 IC50. As to the method: Plasmepsin-2 (PM-2; Plm II) and Plasmepsin (PM-4; Plm IV) expression and purification was performed following the published protocols (Istvan E S and Goldberg D E, 2005). The final purified protein was activated by diluting the protein to 0.3 mg/mL in activating buffer (0.1 M citrate pH 4.5, 0.1% Tween-20, 50 mM dithiothreitol) and incubated at room temperature for 40 min, then the activated enzyme was diluted in assay buffer (50 mM sodium acetate pH 4.7, 0.01% Tween-20). The enzymatic inhibition reaction was performed in 384 well plates with a total volume of 20 μl. 10 μl of diluted PM-2 or PM-4 enzyme was added to the 384-well plate except blank wells (blank wells add 10 μL of assay buffer) and 20 nL of serials of diluted 1000× compounds were added to the wells with 520 Echo® Liquid Handling System (Labcyte Inc.). 10 μL PM-2 peptide substrate (AnaSpec, Cat#, 62050) with assay buffer was then added to final concentration of 20 μM to start the reaction. After incubation the reaction at room temperature for 60 min, the fluorescence intensity at Ex/Em=360 nm/535 nm was measured using EnVision multilabel plate reader (Perkin-Elmer). The IC50 values were obtained using Graph Pad Prism 4 and are reported in Tables 8 and 9 below as PM-2 IC50 values.

[3] abbreviates: 3D7, Table 10, read-out: Pf3D7 IC50.
Setting [4] is: 3D7, Table 13, read-out: 3D7 IC50.
Setting [5] is: 3D7, Table 11, read-out: Pf 3D7 IC50.

Sequence of Plasmepsin-2 (PM-2; Plm II) (P46925 125-453 limits assumed): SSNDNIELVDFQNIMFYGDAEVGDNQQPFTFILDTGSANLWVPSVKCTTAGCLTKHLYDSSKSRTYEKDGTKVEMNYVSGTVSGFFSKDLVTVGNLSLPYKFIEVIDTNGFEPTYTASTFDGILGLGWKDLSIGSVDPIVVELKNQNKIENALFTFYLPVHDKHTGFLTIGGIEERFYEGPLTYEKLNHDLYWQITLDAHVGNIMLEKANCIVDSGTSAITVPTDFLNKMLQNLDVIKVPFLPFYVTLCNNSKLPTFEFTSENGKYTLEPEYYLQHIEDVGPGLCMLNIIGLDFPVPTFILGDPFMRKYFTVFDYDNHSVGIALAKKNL

`COc1ccc(C2(c3ccc(OC)cc3)NC(=N)N(C3CCC3)C2=O)cc1` [Example 204, 3-cyclobutyl-2-imino-5,5-bis(4-methoxyphenyl)-imidazolidin-4-one]: the results for the IC50 in assay [1] (setting [3]), in assay [1] (setting [4]) and in assay [2] were 0.722 µM, 0.722 µM and 0.0674 µM, respectively.

For the molecule `CCOc1ccc(C2(c3ccc(OCC)cc3)NC(=N)N(C3CCCCC3)C2=O)cc1` [Example 157, 3-cyclohexyl-5,5-bis(4-ethoxyphenyl)-2-iminoimidazolidin-4-one], the IC50 worked out at 0.466 µM in assay [1] (setting [5]), 0.466 µM in assay [1] (setting [4]) and 0.00687 µM in assay [2].

In the case of `COc1ccc(C2(c3ccc(OC)cc3)NC(=N)N(Cc3ccccc3)C2=O)cc1` [Example 162, 3-benzyl-2-imino-5,5-bis(4-methoxyphenyl)-imidazolidin-4-one], the IC50 was found to be 0.855 µM in assay [1] (setting [3]), 0.855 µM in assay [1] (setting [4]) and 0.0073 µM in assay [2].

On to `N=C1NC(c2ccccc2)(c2cccc(OCc3ccccc3)c2)C(=O)N1C1CCCCC1` (stereo not drawn) [Example 228, 5-[3-(benzyloxy)-phenyl]-3-cyclohexyl-2-imino-5-phenylimidazolidin-4-one], for which the IC50 is 0.641 µM in assay [1] (setting [5]), 0.641 µM in assay [1] (setting [4]) and 0.00289 µM in assay [2].

For the molecule `COc1ccc(C2(c3ccc(OC)cc3)NC(=N)N(Cc3ccccc3C(F)(F)F)C2=O)cc1` [Example 304, 2-imino-5,5-bis(4-methoxyphenyl)-3-{[2-(trifluoromethyl)-phenyl]methyl}-imidazolidin-4-one], the half-maximal inhibitory concentration (IC50) amounted to 1.34 µM in assay [1] (setting [4]) and 0.00188 µM in assay [2].

On to `COc1ccc(C2(c3ccc(OC)c(OC)c3)NC(=N)N(C3CCCCC3)C2=O)cc1OC` [Example 173, 3-cyclohexyl-5,5-bis(3,4-dimethoxy-phenyl)-2-imino-imidazolidin-4-one], for which the 50% inhibitory concentration (IC50) turned out to be 0.614 µM in assay [1] (setting [4]) and 0.0547 µM in assay [2].

As to `COc1ccc(C2(c3ccc(OC)cc3)NC(=N)N(Cc3cccnc3)C2=O)cc1` [Example 219, 2-imino-5,5-bis(4-methoxyphenyl)-3-(pyridin-3-ylmethyl)-imidazolidin-4-one], the IC50 in assay [1] (setting [4]) was found to be 0.582 µM; in assay [2], 0.00962 µM.

Consider `COc1ccc(C2(c3ccc(OC)cc3)NC(=N)N(Cc3c(C)cccc3C)C2=O)cc1` [Example 278, 3-[(2,6-dimethyl-phenyl)methyl]-2-imino-5,5-bis(4-methoxyphenyl)-imidazolidin-4-one], for which the IC50 in assay [1] (setting [4]) is 1.04 µM; in assay [2] it was 0.00276 µM.

In the case of `N=C1NC(c2ccccc2)(c2ccccc2)C(=O)N1Cc1ccccc1` [Example 102, 3-benzyl-2-imino-5,5-diphenyl-imidazolidin-4-one], the IC50 in assay [1] (setting [3]) worked out at 8.29 µM; in assay [1] (setting [4]), 8.29 µM; in assay [2], 0.0331 µM.

As for `COc1ccc(C2(c3ccc(OC)cc3)NC(=N)N(Cc3ccncc3)C2=O)cc1` [Example 203, 2-imino-5,5-bis(4-methoxyphenyl)-3-(pyridin-4-ylmethyl)-imidazolidin-4-one], the IC50 in assay [1] (setting [4]) was determined as 1.13 µM; in assay [2], 0.0149 µM.

Take `N=C1NC(c2ccccc2)(c2ccccc2)C(=O)N1C1CC1` [Example 142, 3-cyclopropyl-2-imino-5,5-diphenylimidazolidin-4-one]: the 50% inhibitory concentration (IC50) in assay [1] (setting [4]) was found to be 10.8 µM; in assay [2], 1.79 µM.

In the case of `COc1cccc(C2(c3cccc(OC)c3)NC(=N)N(C3CC3)C2=O)c1` [Example 167, 3-cyclopropyl-2-imino-5,5-bis(3-methoxyphenyl)-imidazolidin-4-one], the concentration for half-maximal inhibition (IC50) in assay [1] (setting [4]) came out at 9.32 µM; in assay [2], 2.83 µM.

For `COc1ccc(C2(c3ccc(OC)cc3)NC(=N)N(C3CCCC3)C2=O)cc1` [Example 159, 3-cyclopentyl-2-imino-5,5-bis(4-methoxyphenyl)-imidazolidin-4-one], the 50% inhibitory concentration (IC50) in assay [1] (setting [3]) stood at 0.611 µM; in assay [1] (setting [4]), 0.611 µM; in assay [2] it was 0.0251 µM.

As for `N=C1NC(c2ccccc2)(c2cccc(-c3ccccc3)c2)C(=O)N1C1CCCCC1` (stereo not drawn) [Example 212, 3-cyclohexyl-2-imino-5-phenyl-5-(3-phenylphenyl)-imidazolidin-4-one], the results for the IC50 in assay [1] (setting [4]) and in assay [2] were 1.71 µM and 0.0123 µM, respectively.

For the molecule `COc1ccc(C2(c3ccc(OC)cc3)NC(=N)N(Cc3ccccc3OC)C2=O)cc1` [Example 248, 2-imino-5,5-bis(4-methoxyphenyl)-3-[(2-methoxyphenyl)-methyl]imidazolidin-4-one], the IC50 in assay [1] (setting [4]) was 0.294 µM; in assay [2], 0.028 µM.

Take `COc1ccc(C2(c3ccc(OC)cc3)NC(=N)N(CC3CCCO3)C2=O)cc1` (stereo not drawn) [Example 274, 2-imino-5,5-bis(4-methoxyphenyl)-3-(oxolan-2-ylmethyl)-imidazolidin-4-one]: the IC50 was found to be 0.633 µM in assay [1] (setting [4]) and 0.0114 µM in assay [2].

Consider `Cc1ccc(C2(c3ccc(C)cc3)NC(=N)N(C3CCCCC3)C2=O)cc1` [Example 156, 3-cyclohexyl-2-imino-5,5-bis(4-methylphenyl)-imidazolidin-4-one], for which the concentration for half-maximal inhibition (IC50) in assay [1] (setting [5]) stood at 1.26 µM; in assay [1] (setting [4]), 1.26 µM; in assay [2] it was 0.014 µM.

Take `COc1ccc(C2(c3ccc(OC)cc3)NC(=N)N(C3CCCCCC3)C2=O)cc1` [Example 220, 3-cycloheptyl-2-imino-5,5-bis(4-methoxyphenyl)-imidazolidin-4-one]: the figures for the IC50 in assay [1] (setting [3]), in assay [1] (setting [4]) and in assay [2] were 0.427 µM, 0.427 µM and 0.00237 µM, respectively.

On to `N=C1NC(c2ccccc2Cl)(c2ccccc2Cl)C(=O)N1C1CCCCC1` [Example 202, 5,5-bis(2-chlorophenyl)-3-cyclohexyl-2-iminoimidazolidin-4-one], for which the concentration for half-maximal inhibition (IC50) in assay [1] (setting [4]) came to 0.349 µM; in assay [2], 6.75 µM.

Regarding `COc1ccc(C2(c3ccc(OC)cc3)NC(=N)N(Cc3cccc(C)c3C)C2=O)cc1` [Example 277, 3-[(2,3-dimethyl-phenyl)methyl]-2-imino-5,5-bis(4-methoxyphenyl)-imidazolidin-4-one], the results for the IC50 in assay [1] (setting [4]) and in assay [2] were 1.57 µM and 0.00439 µM, respectively.

In the case of `COc1cccc(C2(c3cccc(OC)c3)NC(=N)N(Cc3ccccc3)C2=O)c1` [Example 105, 3-benzyl-2-imino-5,5-bis(3-methoxy-phenyl)imidazolidin-4-one], the IC50 in assay [1] (setting [4]) came out at 6.31 µM; in assay [2] it was 0.0574 µM.

For `COc1ccc(C2(c3ccc(OC)cc3)NC(=N)N(CC(C)(C)C)C2=O)cc1` [Example 252, 3-(2,2-dimethylpropyl)-2-imino-5,5-bis(4-methoxyphenyl)-imidazolidin-4-one], the half-maximal inhibitory concentration (IC50) stood at 0.266 µM in assay [1] (setting [4]) and 0.00528 µM in assay [2].

With `N=C1NC(c2ccc(OC(F)(F)F)cc2)(c2ccc(OC(F)(F)F)cc2)C(=O)N1C1CCCCC1` [Example 201, 3-cyclohexyl-2-imino-5,5-bis[4-(trifluoromethoxy)-phenyl]imidazolidin-4-one], the IC50 was found to be 2.2 µM in assay [1] (setting [5]), 2.2 µM in assay [1] (setting [4]) and 0.0551 µM in assay [2].

For the molecule `COc1ccc(C2(c3cccc(-c4ccncc4)c3)NC(=N)N(C3CCCCC3)C2=O)cc1` (stereo not drawn) [Example 172, 3-cyclohexyl-2-imino-5-(4-methoxyphenyl)-5-[3-(pyridin-4-yl)phenyl]-imidazolidin-4-one], the IC50 in assay [1] (setting [4]) amounted to 0.533 µM; in assay [2], 0.00964 µM.

As for `COc1cccc(C2(c3cccc(-c4cccnc4)c3)NC(=N)N(C3CCCCC3)C2=O)c1` (stereo not drawn) [Example 214, 3-cyclohexyl-2-imino-5-(3-methoxyphenyl)-5-[3-(pyridin-3-yl)phenyl]-imidazolidin-4-one], the values for the concentration for half-maximal inhibition (IC50) in assay [1] (setting [5]), in assay [1] (setting [4]) and in assay [2] were 0.787 µM, 0.787 µM and 0.012 µM, respectively.

The record behind these values is patent publication US9353089B2, “Compositions and methods for the treatment of malaria” (Saint Louis University, priority 2013, dated 2016).
